# Measurements from article PMC9529094, “Identification of natural cytochalasins as leads for neglected tropical diseases drug discovery” (PLoS ONE, 2022).
# Like-named read-outs stand apart in the source and are kept apart here.
# How the values were obtained:
# [1] = tested on: L. infantum promastigotes; assay: Leishmanicidal assay using L. infantum promastigotes (resazurin); format: cell-based, Leishmania infantum; conditions: 20–2.5 μM, 24 h, Fig 2C
# Experimental: Promastigotes of L. infantum (1x10^6 parasites/well) were distributed in 96-well plates, and the test compounds (cytochalasins A-D) were added at concentrations of 20–2.5 μM. The plates were incubated under the same conditions as previously described for 24 h. The leishmanicidal activity was determined by adding 20 μL of resazurin (Sigma-Aldrich), and the plates were incubated for 4 h. The absorbance was measured at 536 and 588 nm in an automated SpectraMax Gemini microplate reader, and the data were analysed using GraphPad Prism version 8.0 for the CC50 value calculation. The percentage of nonviable parasites was determined and compared to the negative control wells.
# [2] = physchem; format: physicochemical; conditions: pH 7.4, from LC retention time calibration; read-out: LogD 7.4 (Oct/buff)
# Experimental: To analyse cytochalasin lipophilicity, a methodology based on the retention time of molecules in stationary phase was used in LC-MS/MS (liquid chromatography-tandem mass spectrometry) Prominence UFLC (Shimadzu Corporation, Kyoto, Japan) and an interface with an LCMS-8045 triple quadrupole mass spectrometer (Shimadzu Corporation, Kyoto, Japan) with an electrospray ionization source (ESI). The chromatogram was obtained using a Supelco Ascentis express RP amide HPLC column (5 cm x 2.1 mm, 2.7 μM). The mobile phases consisted of 5% methanol in 10 mM ammonium acetate pH 7.4 (A) and 100% methanol (B). The mobile phase was eluted in binary gradient mode, and the gradient was as follows: 0 min, 95% A; 0.3 mins. 100% A; 5.2 mins. 0% A; 5.6 mins. 0% A; 5.8 mins. 100% A; 7.0 mins. And 100% A. The run time was 7 minutes, and the sample injection volume was 5 μL. Test compounds were prepared at 1.0 mg/mL by adding the stock solution at (1:1) mobile phases A:B (internal standard at 200 nM), and the DMSO concentration was lower than 2%. […]. The retention time (in minutes) of each of the eight standards was plotted against their LogD values. The resulting equation for the calibration curve (y = mx + b) was used to calculate the LogD values for the cytochalasins.
# [3] = physchem; format: physicochemical; conditions: aqueous buffer, kinetic from dmso stock
# Experimental: The plate was sealed and shaken for 24 hours (200 rpm, r.t.). The precipitates on the incubation plate were removed by centrifugation (15 min., 3000 rpm, r.t.). The supernatant fractions were quantified by LC-MS/MS (liquid chromatography-tandem mass spectrometry) Prominence UFLC (Shimadzu Corporation, Kyoto, Japan) and interface with an LCMS-8045 triple quadrupole mass spectrometer (Shimadzu Corporation, Kyoto, Japan) with an electrospray ionization source (ESI). From a 10 mM standard solution, an intermediate standard dilution of 0.5 mM in a 1:1 acetonitrile:water solution was prepared. Calibration curves were prepared for each cytochalasin by diluting the intermediate standard several times to reach the desired concentrations of 50, 40, 20, 2, and 1 μM. The resulting equation for the calibration curve (y = mx + b) was used to calculate the experimental concentration values for the cytochalasins. The chromatogram for analysis was obtained on a Supelco Ascentis express C18 column (3 cm x 2.1 mm, 5 μM). The mobile phases consisted of water + 0.05% formic acid (A) and acetonitrile + 0.05% formic acid (B). The mobile phase was eluted in binary gradient mode, and the gradient was as follows: 0 min, 98% A; 1.2 mins. 2% A; 2.0 mins: 2% A; and re-equilibration time: 0.6 min., 98% A. The run time was 2 minutes, the sample injection volume was 5 μL, and the flow rate was 0.6 mL/min.
# [4] = PBS pH 2.0, 24 h, read-out: Kinetic Solubility pH 2.0 (LogS) (converted)
# [5] = PBS pH 7.4, 24 h, read-out: Kinetic Solubility pH 7.4 (LogS) (converted)
Structure (SMILES),toxicity to L. infantum promastigote parasites [1],chromatographic logD [2],"solubility kinetic [3, 4]","solubility kinetic [3, 5]"
C=C1[C@@H](C)[C@H]2[C@H](Cc3ccccc3)NC(=O)[C@]23OC(=O)/C=C/C(=O)CCC[C@@H](C)C/C=C/[C@H]3[C@@H]1O [Cytochalasin A],toxic,3.907 ± 0.014,39.8 µM,69.2 µM
C=C1[C@@H](C)[C@H]2[C@H](Cc3ccccc3)NC(=O)[C@]23OC(=O)/C=C/[C@H](O)CCC[C@@H](C)C/C=C/[C@H]3[C@@H]1O [Cytochalasin B],–,3.361 ± 0.008,77.6 µM,77.6 µM
CC(=O)OC1C=CC(C)(O)C(=O)C(C)CC=CC2C(O)C(C)=C(C)C3C(Cc4ccccc4)NC(=O)C123 (centres unmarked) [Cytochalasin C],toxic,3.434 ± 0.003,17 µM,46.8 µM
C=C1[C@@H](C)[C@H]2[C@H](Cc3ccccc3)NC(=O)[C@]23[C@H](OC(C)=O)/C=C/[C@@](C)(O)C(=O)[C@@H](C)C/C=C/[C@H]3[C@@H]1O [Cytochalasin D],–,3.043 ± 0.004,42.7 µM,46.8 µM
